Values joined by “and” are separate entries in the source; they are usually repeats but may differ in a detail not shown here. Equal entries are not always repeated.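 Exposure lasted 48 hours, with cells grown in 96-well plates and compounds tested at five concentrations. GI50 = concentration required for 50% inhibition of growth. TGI marks complete inhibition of growth.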
What was measured:
Experiment in all cases: DTP human tumour cell line panel, 48 h
HT29 colon = system: HT29 colon
HCT-116 colon = system: HCT-116 colon
NCI-H226 lung = system: NCI-H226 lung
MDA-MB-435 = system: MDA-MB-435
NCI-H522 lung = system: NCI-H522 lung
HCC-2998 colon = system: HCC-2998 colon
TK-10 renal = system: TK-10 renal
IGROV1 ovarian = system: IGROV1 ovarian
NCI-H460 lung = system: NCI-H460 lung
SK-MEL-2 melanoma = system: SK-MEL-2 melanoma

| Structure (SMILES) | GI50 (HT29 colon) [µM] | TGI (HT29 colon) | GI50 (HCT-116 colon) [µM] | TGI (HCT-116 colon) | GI50 (NCI-H226 lung) [µM] | TGI (NCI-H226 lung) | GI50 (MDA-MB-435) [µM] | TGI (MDA-MB-435) | GI50 (NCI-H522 lung) [µM] | TGI (NCI-H522 lung) | GI50 (HCC-2998 colon) [µM] | TGI (HCC-2998 colon) | GI50 (TK-10 renal) [µM] | TGI (TK-10 renal) | GI50 (IGROV1 ovarian) [µM] | TGI (IGROV1 ovarian) | GI50 (NCI-H460 lung) | TGI (NCI-H460 lung) | GI50 (SK-MEL-2 melanoma) [µM] | TGI (SK-MEL-2 melanoma) |
| --- | --- | --- | --- | --- | --- | --- | --- | --- | --- | --- | --- | --- | --- | --- | --- | --- | --- | --- | --- | --- |
| CC(=O)OC1CC2(O)C(CCC3(C)C(c4ccc(=O)oc4)CCC32O)C2(C)CCC(OC3OC(CO)C(O)C(O)C3O)C=C12 (stereo not drawn) | 0.045 | 0.381 µM | 0.0111 | 0.105 µM | 0.051 | 0.176 µM | 0.0342 | 0.139 µM | < 0.01 | 0.148 µM | 0.0735 | 0.419 µM | 0.0226 | 0.201 µM | 0.0318 | 0.272 µM | < 0.01 µM | 0.0282 µM | 0.0474 | 0.413 µM |
| CC1=C/C(O)CC(=O)Cc2nc(co2)C(=O)N2CCC=C2C(=O)OC(C(C)C)C(C)/C=C\C(=O)NC/C=C\1 (stereo not drawn) | 13.2 | 30.7 µM and 31.8 µM | 3.63 | 14.8 µM and 28.1 µM | > 46.3 | > 100 µM | 20.3 | > 94.2 µM and 80.4 µM | 15.2 | > 65.6 µM and 11.8 µM | 16.2 | 31.6 µM and 34.5 µM | > 100 | > 100 µM and 96.1 µM | 18.6 | 48.2 µM and 36.6 µM | 17.8 µM | 58 µM and > 100 µM | 10.1 | > 100 µM |
| C=C1[C@@H](O)C[C@H]2C(C)(C)C[C@H](Cl)C[C@]2(C)[C@H]1C[C@H](O)[C@H]1CC(=O)NC1=O | < 0.0105 | 0.119 µM | < 0.01 | 0.109 µM | 0.0218 | 0.19 µM | 0.016 | 0.312 µM | < 0.01 | 0.0293 µM | 0.0173 | 0.117 µM | 0.0253 | 0.151 µM | 0.0114 | 0.0853 µM | < 0.01 µM | 0.29 µM | < 0.0111 | 0.0469 µM |
| CNC12C3C4C1C1C2C3C41C(=O)N[C@H](C(=O)N(C)[C@H](C[C@@H](OC(C)=O)c1nc(C(=O)N[C@@H](Cc2ccccc2)C[C@H](C)C(=O)OC)cs1)C(C)C)C1CC1 (stereo partly drawn) | 0.257 | 1.28 µM | 0.215 | > 4.1 µM | 1.73 | > 14 µM | 0.0467 | 0.32 µM | 0.041 | 0.524 µM | 0.319 | 2.67 µM | 0.562 | > 15 µM | 0.172 | > 13.4 µM | 0.517 µM | > 15 µM | 0.189 |  |
| Cc1ccc(NC(=O)N2CCCCC2)cc1[N+](=O)[O-] | > 100 | > 100 µM | > 100 | > 100 µM | > 100 | > 100 µM | > 100 | > 100 µM | 87.1 | > 100 µM | > 100 | > 100 µM | > 100 | > 100 µM | > 100 | > 100 µM | > 100 µM | > 100 µM | > 100 | > 100 µM |
| CCCC(=O)O[C@]1(C)CC[C@@H]2[C@H]3[C@@H]1[C@@H]1C/C(C)=C\CC[C@](C)(OC(=O)[C@@H]2C)[C@H]3O1 | 32.1 | > 100 µM | 18.8 | 38.2 µM | 41.3 | > 100 µM | 32.6 | > 100 µM | 19.6 | 75.5 µM | 21.7 | 82.9 µM | 86.9 | > 100 µM | 24.3 | > 100 µM | 22.5 µM | 69.8 µM | 49.5 | > 100 µM |
| OCc1ncc(-c2ccccc2)s1 | > 100 | > 100 µM | > 100 | > 100 µM | > 100 | > 100 µM | > 100 | > 100 µM | > 100 | > 100 µM | > 100 | > 100 µM | > 100 | > 100 µM | > 100 | > 100 µM | > 100 µM | > 100 µM | > 100 | > 100 µM |
| Clc1ccc(N/N=C(\c2ccccc2)c2ccccn2)nc1 | 0.0364 | > 37.2 µM and 10.8 µM | 0.0313 | 10.6 µM and 11.1 µM | 0.197 | 5.16 µM and 0.736 µM | 0.42 | > 55.9 µM | 0.0805 | 2.77 µM | 0.341 | > 48.4 µM and 21.1 µM | 0.338 | > 100 µM | 0.139 |  | 0.29 µM and 0.171 µM | > 39.9 µM and 13.6 µM | 0.796 | > 95.1 µM and 32.3 µM |
| C/C(=C1/N=C(c2ccccc2)OC1=O)c1ccccc1 |  | > 100 µM |  | > 100 µM |  | > 100 µM |  | > 100 µM |  | > 100 µM |  | > 100 µM |  | > 100 µM |  | > 100 µM |  | > 100 µM |  | > 100 µM |
| N=C1N=C(N)S/C1=C\c1ccc2ncccc2c1 | > 25 | > 25 µM | > 25 | > 25 µM | > 25 | > 25 µM | > 25 | > 25 µM | > 25 | > 25 µM | > 25 | > 25 µM | > 25 | > 25 µM | > 25 | > 25 µM | > 25 µM | > 25 µM | > 25 | > 25 µM |
| Cc1ccc(N(/C=C/C(=O)C(F)(F)F)CC(=O)c2ccc(Cl)c(Cl)c2)cc1 | 4.73 | 17.9 µM | 4.3 | 17.7 µM | 14.9 | 28.7 µM | 1.92 | 3.82 µM | 5.16 | 17.8 µM | 1.45 | 14.8 µM | 12.1 | 24.5 µM | 5.75 | 18.6 µM | 8.73 µM | 21 µM | 3.26 | 16.1 µM |
| C[C@@H]1CC[C@@H]2[C@@H]1[C@H](OC(=O)c1ccc3ccccc3c1)[C@]1(C3CCCCC3)C[C@@H](OC(=O)CO)[C@@]2(C)O1 | 4.38 | 18.3 µM | 6.46 | 19.6 µM | 11.6 | 26.2 µM | 14.1 | 29.4 µM | 10.3 | 24.1 µM | 11.8 | 28.1 µM | 14.5 | 31.1 µM | 15.6 | 32.8 µM | 9.27 µM | 23.7 µM | 15.3 | 30.8 µM |
